Source: ChEMBL document CHEMBL3098024, “Synthesis, molecular modeling and biological evaluation of N-benzylidene-2-((5-(pyridin-4-yl)-1,3,4-oxadiazol-2-yl)thio)acetohydrazide derivatives as potential anticancer agents” (Bioorg Med Chem, 2014)

Legend:
NIH3T3 = assay: Cytotoxicity against mouse NIH/3T3 cells after 24 hrs by MTT assay; type: ADME, cell-based; conditions: NIH3T3, 24 h
[1] = Inhibition of telomerase in human SW1116 cells after 24 hrs by TRAP-PCR-ELISA assay; type: cell-based; conditions: sw 1116
[2] = Cytotoxicity against human BGC823 cells after 48 hrs by MTT assay; type: functional, cell-based; conditions: BGC-823, 48 h
[3] = Cytotoxicity against human SW1116 cells after 48 hrs by MTT assay; type: functional, cell-based; conditions: SW 1116, 48 h
MCF7 = assay: Cytotoxicity against human MCF7 cells after 48 hrs by MTT assay; type: functional, cell-based; conditions: MCF7, 48 h
HepG2 = assay: Cytotoxicity against human HepG2 cells after 48 hrs by MTT assay; type: functional, cell-based; conditions: HepG2, 48 h

Row | Structure (SMILES) | IC50 (NIH3T3) | IC50 [1] | pIC50 [1] | IC50 [2] | IC50 [3] | IC50 (MCF7) | IC50 (HepG2)
1 | O=C(CSc1nnc(-c2ccncc2)o1)N/N=C/c1ccco1 | 175 µM | 9.63 µM | 5.02 | 25.8 µM | 18.8 µM | 16.6 µM | 12.5 µM
2 | NNC(=O)CSc1nnc(-c2ccncc2)o1 | – | – | – | 3.26 µM | 3.26 µM | 3.26 µM | 3.26 µM
3 | O=C(CSc1nnc(-c2ccncc2)o1)N/N=C/c1cccs1 | 189 µM | 13.5 µM | 4.87 | 26.7 µM | 24.9 µM | 23.5 µM | 14.9 µM
4 | O=C(CSc1nnc(-c2ccncc2)o1)N/N=C/C=C/c1ccccc1 | 160 µM | 6.57 µM | 5.18 | 10.6 µM | 14.9 µM | 10.8 µM | 7.42 µM
5 | O=C(CSc1nnc(-c2ccncc2)o1)N/N=C/c1cccc(F)c1 | 205 µM | 15.7 µM | 4.8 | 27.5 µM | 26.7 µM | 24.9 µM | 19.4 µM
6 | O=C(CSc1nnc(-c2ccncc2)o1)N/N=C/c1cccc(C(F)(F)F)c1 | 169 µM | 5.18 µM | 5.29 | 13 µM | 14.9 µM | 14.6 µM | 6.52 µM
7 | COc1cccc(/C=N/NC(=O)CSc2nnc(-c3ccncc3)o2)c1 | 179 µM | 7.54 µM | 5.12 | 15.8 µM | 16.5 µM | 13.8 µM | 9.17 µM
8 | O=C(CSc1nnc(-c2ccncc2)o1)N/N=C/c1ccccc1F | 142 µM | 14.6 µM | 4.84 | 24 µM | 21.5 µM | 21.8 µM | 16 µM
9 | O=C(CSc1nnc(-c2ccncc2)o1)N/N=C/c1ccccc1[N+](=O)[O-] | 214 µM | 18.2 µM | 4.74 | 41.6 µM | 30.7 µM | 35.6 µM | 24.7 µM
10 | O=C(CSc1nnc(-c2ccncc2)o1)N/N=C/c1ccccc1O | 155 µM | 3.97 µM | 5.4 | 6.16 µM | 7.38 µM | 4.75 µM | 3.51 µM
11 | O=C(CSc1nnc(-c2ccncc2)o1)N/N=C/c1cc(Cl)ccc1O | 166 µM | 3.13 µM | 5.5 | 5.47 µM | 5.24 µM | 5.83 µM | 3.97 µM
12 | O=C(CSc1nnc(-c2ccncc2)o1)N/N=C/c1cc(Br)ccc1O | 156 µM | 4.28 µM | 5.37 | 9.59 µM | 8.15 µM | 7.77 µM | 6.49 µM
13 | O=C(CSc1nnc(-c2ccncc2)o1)N/N=C/c1cc(Cl)cc(Cl)c1O | 171 µM | 4.8 µM | 5.32 | 6.34 µM | 5.03 µM | 5.92 µM | 3.26 µM
14 | O=C(CSc1nnc(-c2ccncc2)o1)N/N=C/c1cc(Br)cc(Br)c1O | 190 µM | 7.12 µM | 5.15 | 9.61 µM | 8.57 µM | 9.01 µM | 6.54 µM
15 | O=C(CSc1nnc(-c2ccncc2)o1)N/N=C/c1ccc(O)c(O)c1 | 154 µM | 1.18 µM | 5.93 | 1.26 µM | 1.54 µM | 0.91 µM | 0.76 µM
16 | COc1cc(/C=N/NC(=O)CSc2nnc(-c3ccncc3)o2)ccc1O | 148 µM | 2.89 µM | 5.54 | 4.32 µM | 3.59 µM | 3.78 µM | 2.92 µM
17 | O=C(CSc1nnc(-c2ccncc2)o1)N/N=C/c1ccc(Cl)cc1Cl | 221 µM | 17.8 µM | 4.75 | 35.6 µM | 28.9 µM | 27.9 µM | 18.6 µM
18 | Cc1ccc(/C=N/NC(=O)CSc2nnc(-c3ccncc3)o2)cc1 | 185 µM | 8.51 µM | 5.07 | 21.8 µM | 16.8 µM | 14.7 µM | 10 µM
19 | O=C(CSc1nnc(-c2ccncc2)o1)N/N=C/c1ccccc1 | 167 µM | 9.72 µM | 5.01 | 22.1 µM | 16.7 µM | 14.6 µM | 17.3 µM
20 | O=C(CSc1nnc(-c2ccncc2)o1)N/N=C/c1ccc(F)cc1 | 170 µM | 10.2 µM | 4.99 | 17.8 µM | 15.7 µM | 13.5 µM | 12.3 µM
21 | O=C(CSc1nnc(-c2ccncc2)o1)N/N=C/c1ccc(Cl)cc1 | 181 µM | 11.9 µM | 4.93 | 20.5 µM | 17 µM | 15.3 µM | 15.7 µM
22 | O=C(CSc1nnc(-c2ccncc2)o1)N/N=C/c1ccc(Br)cc1 | 169 µM | 12.4 µM | 4.91 | 24.5 µM | 21.3 µM | 19.1 µM | 18.6 µM
23 | O=C(CSc1nnc(-c2ccncc2)o1)N/N=C/c1ccc([N+](=O)[O-])cc1 | 195 µM | 16.7 µM | 4.78 | 31.5 µM | 25.8 µM | 31.8 µM | 17.9 µM
24 | O=C(CSc1nnc(-c2ccncc2)o1)N/N=C/c1ccc(O)cc1 | 158 µM | 5.36 µM | 5.27 | 7.94 µM | 12.2 µM | 11.7 µM | 5.51 µM
25 | COc1ccc(/C=N/NC(=O)CSc2nnc(-c3ccncc3)o2)cc1 | 132 µM | 9.04 µM | 5.04 | 19.8 µM | 20.3 µM | 17.6 µM | 15.8 µM
26 | O=c1[nH]cc(F)c(=O)[nH]1 [FLUOROURACIL] | – | – | – | 7.48 µM | 5.26 µM | 9.79 µM | 7.43 µM
27 | CC[n+]1c(-c2ccccc2)c2cc(N)ccc2c2ccc(N)cc21 [HOMIDIUM BROMIDE] | 135 µM | 2.71 µM | – | – | – | – | –
